Laboratory results from patent publication US5153352A, “Process for preparation of intermediates of carbocyclic nucleoside analogs” (priority 1990, dated 1992).
Converted amounts (≈) assume the structure as drawn. “And” between values parts separate entries of the source, which are not always exact repeats. Identical values can stand only once. Counter-ions that a name gives are not always drawn.

Tests used:
[1] = system: Herpes simplex type 1 (HSV-1) strain E-377; test: CPE-inhibition assay, HSV-1 strain E-377 in Vero cells; settings: for TI (Therapeutic Index, MTC/ID50) / VR (Virus Rating): HSV-1 (E-377), Vero; for EC50: Human alphaherpesvirus 1, Vero, read-out: ID50 (minimum drug concentration that inhibited the CPE by 50%), HSV-1 (E-377), Vero; for VR (Virus Rating): >1.0 definite, 0.5-0.9 marginal to moderate, <0.5 no significant activity
[2] = system: Herpes simplex type 2 (HSV-2) strain MS; test: CPE-inhibition assay, HSV-2 strain MS in Vero cells; settings: for TI (Therapeutic Index, MTC/ID50) / VR (Virus Rating): HSV-2 (MS), Vero; for EC50: Human alphaherpesvirus 2, Vero, read-out: ID50 (minimum drug concentration that inhibited the CPE by 50%), HSV-2 (MS), Vero; for VR (Virus Rating): >1.0 definite, 0.5-0.9 marginal to moderate, <0.5 no significant activity
[3] = drug cytotoxicity in Vero cells (CPE-inhibition assay); settings: monkey, vero cells, MTC (minimum drug concentration causing any cytotoxicity), Vero
[4] = system: Vero cells; test: as above; settings: Vero
[5] = system: HCT8: Adenocarcinoma, ileocecal; test: cytotoxic activity against cultured tumor cells, HCT-8; type: cell-based; settings: Homo sapiens, 72 h; HCT-8, 3 days, MTT
[6] = system: P388D1: Lymphocytic Leukemia; test: cytotoxic activity against cultured tumor cells, P388-D1; type: cell-based; settings: Mus musculus, P388D1, 72 h; P388-D1, 3 days, MTT
[7] = system: A549: Lung carcinoma; test: cytotoxic activity against cultured tumor cells, A549; type: cell-based; settings: Homo sapiens, 72 h; A549, 3 days, MTT
[8] = system: HSV-1(E-377); test: plaque reduction, HSV-1(E-377) in Vero cells; type: cell-based, Herpes simplex virus type 1; settings: Human alphaherpesvirus 1, plaque reduction 50%, read-out: MIC50
Description: (§1) After the adsorption period, the infected cell monolayers were treated in duplicate with serial dilutions of the test compound. Duplicate cell controls containing medium alone and virus controls containing medium and virus were run simultaneously with the test compound. […] Plaques visible to the unaided eye were counted and the mean number of plaques in the duplicate wells for each compound concentration tested and for the untreated, virus infected controls were determined.

[9] = system: HSV-1(123); test: plaque reduction, HSV-1(123) in Vero cells; type: cell-based, Herpes simplex virus type 1; settings: Human alphaherpesvirus 1, plaque reduction 50%, read-out: MIC50
Description: as §1

[10] = system: HSV-2; test: plaque reduction, HSV-2 in Vero cells; type: cell-based, Herpes simplex virus type 2; settings: Human alphaherpesvirus 2; HSV-2, Vero, plaque reduction 50%; read-out: MIC50
Description: as §1

[11] = MTT cytotoxicity assay in MRC5 cells; type: cell-based; settings: human
Description: (§2) Human diploid embryonic lung (MRC5) cells were grown in 35 mm wells of 6-well tissue culture plates. Subconfluent cell monolayers were rinsed with phosphate buffered saline (PBS) and were exposed to 0.5 ml/well of HCMV (strain AD169) suspension for 1.5 hours at 37° C. The virus suspension was diluted in MEM+2% fetal bovine serum (FBS) to yield a multiplicity of infection (MOI) of approximately 0.1 plaque forming units (PFU)/cell. Following the virus adsorption period, the inocula were removed and infected cell layers were rinsed with PBS. Aliquots (2.0 ml) of each test drug concentration (dissolved in MEM supplemented with 2% FBS) were dispensed into triplicate cell cultures: two virus infected cultures and one uninfected cytotoxicity control culture (exposed to medium without virus for 1.5 hours). Untreated virus infected control cultures and untreated, uninfected cell control cultures were fed with medium alone.
(§3) All cell culture fluids were replaced with fresh drug and medium 48 hours postinfection (p.i.).
Drug cytotoxicity was determined quantitatively by a method based on the reduction of the tetrazolium salt, 3-(4,5-dimethyl-thiazol-2-yl)-2,5-diphenyl tetrazolium bromide (MTT) by mitochondrial enzymes of viable host cells to MTT formazan (T. Mosmann, 1983). Drug cytotoxicity controls and cell controls were treated with MTT (dissolved in culture medium) followed by 20% SDS (in 0.02 N HCl) to dissolve the crystals of MTT formazan. The blue color of the MTT formazan was measured spectrophotometrically at 570 nm. Drug cytotoxicity was determined by comparing the absorbance (O.D.) of each drug cytotoxicity control with the mean O.D. of the cell control cultures and expressed as percent of control.

[12] = system: Human Cytomegalovirus (HCMV); test: HCMV virus yield reduction assay in MRC5 cells; type: cell-based, Human cytomegalovirus (strain AD169)
Description: as §2, §3
On Day 6 p.i., the cell layers were examined microscopically for cytopathogenic effect (CPE) and drug cytotoxicity. The test and virus control cultures were then harvested by subjecting the cell layers to one cycle of freeze-thawing.
The harvested test and virus control samples were thawed and the infectious virus yield was determined by plaque assay in MRC5 cells grown in 12-well cluster plates. Inhibition of HCMV replication by each test compound was determined by comparing the progeny virus yields in the drug-treated cultures with the progeny virus yield in the untreated, virus infected control cultures.

[13] = cytotoxicity in ATH8 cells (method of Mitsuya and Broder); type: cell-based; settings: human, HIV-1 experiment
Description: The method of Mitsuya and Broder (AIDS: Modern Concepts and Therapeutic Challenges; Broder, S. ED.; Marcel Dekker, Inc.; New York, 1987; Chapter 18) was used to determine the in vitro anti-HIV-1 and anti-HIV-2 activity in ATH8 cells of some compounds of the invention. […]

[14] = system: Human Immunodeficiency Virus (HIV-1); test: anti-HIV-1 protection of ATH8 cells (method of Mitsuya and Broder); type: cell-based; settings: Human immunodeficiency virus 1, ATH-8, HIV-1, ATH8 cells, read-out: Protective Effect
Description: The method of Mitsuya and Broder (AIDS: Modern Concepts and Therapeutic Challenges; Broder, S. ED.; Marcel Dekker, Inc.; New York, 1987; Chapter 18) was used to determine the in vitro anti-HIV-1 and anti-HIV-2 activity in ATH8 cells of some compounds of the invention. The results of the test are expressed as the percentage of ATH8 cells that were protected from the cytopathogenic effects of HIV at various concentrations of the compound of the invention.

| SMILES | EC50 [1] [µg/mL] | EC50 [2] [µg/mL] | MCC ([3]; HSV-1 (E-377) experiment) [µg/mL] | MCC ([3]; HSV-2 (MS) experiment) [µg/mL] | VR (Virus Rating) [1] | TI (Therapeutic Index, MTC/ID50) [2] | VR (Virus Rating) [2] | TI (Therapeutic Index, MTC/ID50) [1] | other results |
| --- | --- | --- | --- | --- | --- | --- | --- | --- | --- |
| Nc1nc(Cl)c2ncn(C3CC(CO)C3CO)c2n1 (centres unmarked) [Example 1H, 3-(2'-Amino-6'-chloro-9'H-purin-9'-yl)-1,2-bis(hydroxymethyl)cyclobutane] | 83 (≈ 293 µM) | 179 (≈ 631 µM) | 320 | 320 |  |  |  |  | TI (Therapeutic Index, MTC/ID50) ([1]; listed as 1.5H): 3.9 and 3.6; TI (Therapeutic Index, MTC/ID50) ([2]; listed as 1.5H): 1.8 and 1.5; MTC (minimum drug concentration causing any cytotoxicity) ([4]; HSV-1 (E-377) experiment): 320 µg/mL; MTC (minimum drug concentration causing any cytotoxicity) ([4]; HSV-2 (MS) experiment): 320 µg/mL |
| CC(=O)OCC1CC(n2cnc3c(=O)[nH]c(N)nc32)C1COC(C)=O (centres unmarked) [Example 20, 9-(2,'3,'-Bis(acetoxymethyl)cyclobutyl)guanine] | 12.1 (≈ 34.6 µM) | 15.7 (≈ 44.9 µM) | 100 | 100 | 2.2 | 6.4 | 1.9 | 8.2 |  |
| Nc1ccn(C2CC(CO)C2CO)c(=O)n1 (centres unmarked) [Example 3, 1-(2',3'-Bis(hydroxymethyl)cyclobutyl)cytosine] | 10.1 (≈ 44.7 µM) | 50.5 (≈ 224 µM) | 320 | 320 | 3.6 | 6.34 | 2.0 | 31.8 |  |
| Nc1nc2c(ncn2C2CC(CO)C2O)c(=O)[nH]1 (centres unmarked) [Example 42P, 9-(2'-hydroxy-3'-hydroxymethyl-1'-cyclobutyl)guanine] |  |  |  |  |  |  |  |  | EC50 [8]: 1 µg/mL (≈ 3.98 µM); EC50 [9]: 3 µg/mL (≈ 11.9 µM); EC50 [10]: 1 µg/mL (≈ 3.98 µM) |
| OCC1CC(n2ccc3c(Cl)ncnc32)C1CO (centres unmarked) [Example 67B, 4-Chloro-7-(2',3'-bis(hydroxymethyl)cyclobutyl)-7H-pyrrolo[2,3-d]pyrimidine] |  |  |  |  |  |  |  |  | viability ([11]; 10 ug/ml): 86%; viability ([11]; 32 ug/ml): 68%; IC50 [5]: 0.63 µg/mL (≈ 2.35 µM); IC50 [6]: 4.9 µg/mL (≈ 18.3 µM); HCMV yield ([12]; 3.2 ug/ml): 4.9 log10 PFU/ml; HCMV yield ([12]; 10 ug/ml): 4.0 log10 PFU/ml; HCMV yield ([12]; 32 ug/ml): 3.1 log10 PFU/ml; log reduction at 3.2 µg/mL ([12]; Human betaherpesvirus 5, 144 h, 3.2 ug/ml): 0.4; log reduction at 10 µg/mL ([12]; Human betaherpesvirus 5, 144 h, 10 ug/ml): 1.3; log reduction at 32 µg/mL ([12]; Human betaherpesvirus 5, 144 h, 32 ug/ml): 2.2; IC50 [7]: 18.8 µg/mL (≈ 70.2 µM) |
| Nc1nc(N)c2ncn(C3CC(CO)C3CO)c2n1 (centres unmarked) [Example 6, 3-(2',6'-Diamino 9'H-purin-9'-yl)-1,2-bis(hydroxymethyl)cyclobutane] | 31.7 (≈ 120 µM) | 71.8 (≈ 272 µM) | 320 | 320 | 2.4 | 4.5 | 1.6 | 10.1 | cytotoxicity at 1 µM ([13]; 1 uM): 0%; cytotoxicity at 10 µM ([13]; 10 uM): 4%; cytotoxicity at 100 µM ([13]; 100 uM): 32%; cytotoxicity at 500 µM ([13]; 500 uM): 38%; inhibition at 1 µM ([14]; 1 uM): 21%; inhibition at 10 µM ([14]; 10 uM): 48%; inhibition at 100 µM ([14]; 100 uM): 46%; inhibition at 500 µM ([14]; 500 uM): 57% |
| Nc1ncnc2c1c(Br)cn2C1CC(CO)C1CO (centres unmarked) [Example 67F, 4-Amino-9-bromo-7-(2',3'-bis(hydroxymethyl)cyclobutyl)-7H-pyrrolo[2,3-d]pyrimidine] |  |  |  |  |  |  |  |  | IC50 [5]: 5.9 µg/mL (≈ 18 µM); IC50 [6]: 5.2 µg/mL (≈ 15.9 µM); IC50 [7]: 3.1 µg/mL (≈ 9.47 µM) |

More lines, main results first:

| EC50 [1] [µg/mL] | EC50 [2] [µg/mL] | SMILES | MCC ([3]; HSV-1 (E-377) experiment) [µg/mL] | MCC ([3]; HSV-2 (MS) experiment) [µg/mL] | VR (Virus Rating) [1] | TI (Therapeutic Index, MTC/ID50) [2] | VR (Virus Rating) [2] | TI (Therapeutic Index, MTC/ID50) [1] | other results |
| --- | --- | --- | --- | --- | --- | --- | --- | --- | --- |
|  | 54.7 (≈ 229 µM) | OCC1CC(n2cnc3c(Cl)ncnc32)C1 (centres unmarked) [Example 8E, 3-(6'-chloro-9'H-purin-9'-yl)cyclobutanemethanol] | 320 | 100 | 0.9 | 1.8 | 1.35 |  |  |
| 11.1 (≈ 32 µM) | 14.9 (≈ 43 µM) | OCC1CC(n2cc(Br)c3c(Cl)ncnc32)C1CO (centres unmarked) [Example 67C] | 32 | 32 | 1.2 | 2.1 | 0.9 | 2.9 | IC50 [5]: 4.3 µg/mL (≈ 12.4 µM); IC50 [6]: 16.4 µg/mL (≈ 47.3 µM); IC50 [7]: 18.4 µg/mL (≈ 53.1 µM) |
| 88 | 75 | NCC1CC(n2cnc3c(Cl)ncnc32)C1 (centres unmarked) [Example 21, 3-(6'-Chloro-9'H-purin-9'-yl)-aminomethylcyclobutane hydrochloride] | 320 | 320 | 1.0 | 4.3 | 1.2 | 3.6 |  |
| 100 (≈ 291 µM) |  | Nc1nc2c(nc(Br)n2C2CC(CO)C2CO)c(=O)[nH]1 (centres unmarked) [Example 23] | > 320 | > 320 | 1.7 |  | 0.7 | 3.2 |  |
| 271 (≈ 1090 µM) |  | Nc1ncc2ncn(C3CC(CO)C3CO)c2n1 (centres unmarked) [Example 7, 3-(2'-Amino-9'H-purin-9'-yl)-1,2-bis(hydroxymethyl)cyclobutane] | 320 |  | 0.55 |  |  | 1.2 |  |
